pKi: −log10 of the molar value.
Target: Glycogen synthase kinase-3 beta (Homo sapiens, UniProt P49841)
Test: Inhibition of human recombinant GSK3beta

Glycogen synthase kinase-3 beta, sequence (P49841 whole entry): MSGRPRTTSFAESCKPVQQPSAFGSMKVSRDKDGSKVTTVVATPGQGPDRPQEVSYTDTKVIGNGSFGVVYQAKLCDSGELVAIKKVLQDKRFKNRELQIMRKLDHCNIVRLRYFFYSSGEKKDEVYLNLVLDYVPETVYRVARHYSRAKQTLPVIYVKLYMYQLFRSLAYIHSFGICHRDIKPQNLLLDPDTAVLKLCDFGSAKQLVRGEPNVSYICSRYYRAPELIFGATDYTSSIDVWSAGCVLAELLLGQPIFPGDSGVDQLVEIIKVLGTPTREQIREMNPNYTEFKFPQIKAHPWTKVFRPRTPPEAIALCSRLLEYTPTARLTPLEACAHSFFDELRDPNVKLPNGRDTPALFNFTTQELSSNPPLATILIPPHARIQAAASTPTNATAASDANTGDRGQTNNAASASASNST

SMILES | pKi
Clc1cc(-c2c[nH]c3ncccc23)cc(NC2CCCCC2)n1 | 7.24

Target: Cell division cycle 7-related protein kinase (Homo sapiens, UniProt O00311)
Test: Inhibition of human Cdc7 using biotin-C6linker-TPSDSLIYDDGLS as substrate after 1 hr

Cell division cycle 7-related protein kinase, sequence (O00311 whole entry): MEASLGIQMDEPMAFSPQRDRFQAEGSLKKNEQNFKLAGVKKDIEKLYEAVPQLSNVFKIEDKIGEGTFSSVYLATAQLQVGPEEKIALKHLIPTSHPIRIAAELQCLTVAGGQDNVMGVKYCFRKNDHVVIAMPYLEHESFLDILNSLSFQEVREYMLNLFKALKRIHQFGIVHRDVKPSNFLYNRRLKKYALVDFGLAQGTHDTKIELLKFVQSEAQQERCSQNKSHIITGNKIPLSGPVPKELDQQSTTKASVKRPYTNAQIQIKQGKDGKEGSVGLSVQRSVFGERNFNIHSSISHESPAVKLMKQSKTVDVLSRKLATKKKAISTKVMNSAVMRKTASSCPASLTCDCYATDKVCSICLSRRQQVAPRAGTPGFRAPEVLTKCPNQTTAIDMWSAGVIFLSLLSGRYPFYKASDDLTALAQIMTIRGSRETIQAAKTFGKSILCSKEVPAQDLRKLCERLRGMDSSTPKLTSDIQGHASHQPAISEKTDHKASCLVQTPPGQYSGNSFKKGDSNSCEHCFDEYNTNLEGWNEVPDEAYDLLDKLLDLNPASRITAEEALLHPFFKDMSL

SMILES | pKi
O=c1cc(-c2c[nH]c3ncccc23)cc(NC2CCCCC2)[nH]1 | 9.55
c1cnc2[nH]cc(-c3ccnc(NC4CCCCC4)c3)c2c1 | 8.06
NC(=O)c1cc(-c2c[nH]c3ncccc23)cc(N[C@H]2CC[C@H](O)CC2)n1 | 7.17
N#Cc1cc(-c2c[nH]c3ncccc23)cc(NCc2ccccc2)n1 | 8.85
N#Cc1cc(-c2c[nH]c3ncccc23)cc(NC2CCCCC2)n1 | 8.11
Fc1cc(-c2c[nH]c3ncccc23)cc(NC2CCCCC2)n1 | 8.49
N#Cc1cc(-c2c[nH]c3ncccc23)cc(N[C@H]2CC[C@H](O)CC2)n1 | 8.26
O[C@H]1CC[C@H](Nc2cc(-c3c[nH]c4ncccc34)cc(F)n2)CC1 | 8.77
Cc1cc(-c2c[nH]c3ncccc23)cc(NCc2ccccc2)n1 | 7.82
Clc1cc(-c2c[nH]c3ncccc23)cc(NC2CCCCC2)n1 | 9.05
N[C@H]1CC[C@H](Nc2cc(-c3c[nH]c4ncccc34)cc(F)n2)CC1 | 8.47
Cc1cc(-c2c[nH]c3ncccc23)cc(NC2CCCCC2)n1 | 7.89
Cc1cc(-c2c[nH]c3ncccc23)cc(N[C@H]2CC[C@H](O)CC2)n1 | 7.57

Reference: ChEMBL document CHEMBL2321696, “Azaindole-Based Inhibitors of Cdc7 Kinase: Impact of the Pre-DFG Residue, Val 195” (ACS Med Chem Lett, 2013)
